Source: patent US20180071354A1, “SELECTIVE BREEDING METHOD OF ANTITUMOR/ANTICANCER CAMELLIA SINENSIS STRAIN, AND TEA PRODUCT OF SUCH STRAIN” (FUJIAN AGRICULTURE AND FORESTRY UNIVERSITY, priority 2015, published 2018)
≈ marks a conversion by molar mass, not a printed value.

Columns and labels:
[1] = system: human liver cancer cell line HepG2; assay: In vitro antitumor/anticancer testing (CCK-8), HepG2; assay type: cell-based; details: 48 h
Description: Each of Tea Product 1 and Conventional Tea Product obtained in section A of this example was used to prepare test tea samples according to the method described below. A proper amount of the respective tea product was added into sterile water to prepare a stock solution with a concentration of 100 mg/mL, followed by using a membrane filter with a pore size of 0.22 μm to conduct vacuum filtration and sterilization. The resulting stock solution was diluted with a respective complete medium shown in Table 3 below to form test tea samples with different concentrations. In other words, the thus obtained test tea samples to be used for treating a respective cancer/tumor cell line shown in Table 3 were prepared using the same complete medium as that for the respective cancer/tumor cell line.
Specifically, each of the aforesaid commercially available agents was subjected to the method described below to prepare comparative test samples. A proper amount of a respective commercially available agent was dissolved in phosphate-buffered saline (PBS) to prepare a stock solution with a concentration of 5 mg/mL, followed by using a membrane filter with a pore size of 0.22 μm to conduct vacuum filtration and sterilization. The resulting stock solution was diluted with a respective complete medium shown in Table 3 below to form comparative test samples with different concentrations. To be specific, the comparative test samples prepared from the respective commercially available agent have the concentrations shown in Table 2 below. The thus obtained comparative test samples to be used for treating a respective cancer/tumor cell line shown in Table 3 were prepared using the same complete medium as that for the respective cancer/tumor cell line.
The following cancer/tumor cells purchased from Chinese Academy of Sciences, Shanghai Institutes for Biological Sciences, Institute of Biochemistry and Cell Biology were used for in vitro antitumor/anticancer testing: human liver cancer cell line HepG2, human ovarian cancer cell line SK-OV-3, human cervical cancer cell line Hela, human lung cancer cell line A549, human glioblastoma cell line U-87MG, human mammary gland/duct cancer cell line BT-474, human prostate cancer cell line PC-3, human leukemia cell line HL-60, human gastric cancer cell line SMMC-7721, human colon cancer cell line HCT-116, human squamous cell carcinoma cell line A431, human leukemia cell line K562, human pancreatic cancer cell line PANC-1, and human gastric cancer cell line BGC-823.
The cultivation of each cancer/tumor cell line is described as follows. The cancer/tumor cancer cells were cultivated in the respective complete medium supplemented with 100 μg/mL penicillin and 100 μg/mL streptomycin in an incubator (37° C., 100% relative humidity, 5% CO2). When adherent cancer/tumor cells reached 80% confluence during the log-phase, cell detachment was conducted using 0.6 mL of 0.3% trypsin. Afterwards, a cell suspension having a cell density of 1.0×10^4 cells/mL was prepared. 100 μL of the cell suspension (i.e. 1000 cancer/tumor cells) was added into wells of a 96-well plate (Cat. No. 3599, Corning Costar), followed by cultivation in an incubator (37° C., 100% relative humidity, 5% CO2) for 24 hours.
As experimental groups, the tumor/cancer cells of each cell line were treated with the test tea samples prepared from one or more of the tea products and the comparative test samples prepared from one or more of the commercially available agents as obtained in section B of this example (for more detailed information about the tea product(s) and the commercially available product (s) used to treat each cell line, please see Table 4 below). To be specific, 6 to 10 test tea samples prepared from the same tea product and having different concentrations, as well as 6 to 10 comparative test samples prepared from the same commercially available agent and having different concentrations, were utilized to treat the tumor/cancer cells of each cell line. […]

[2] = system: human mammary gland/duct cancer cell line BT-474; assay: In vitro antitumor/anticancer testing (CCK-8), BT-474; assay type: cell-based; details: 48 h
Description: Each of Tea Product 1 and Conventional Tea Product obtained in section A of this example was used to prepare test tea samples according to the method described below. A proper amount of the respective tea product was added into sterile water to prepare a stock solution with a concentration of 100 mg/mL, followed by using a membrane filter with a pore size of 0.22 μm to conduct vacuum filtration and sterilization. The resulting stock solution was diluted with a respective complete medium shown in Table 3 below to form test tea samples with different concentrations. In other words, the thus obtained test tea samples to be used for treating a respective cancer/tumor cell line shown in Table 3 were prepared using the same complete medium as that for the respective cancer/tumor cell line. […] Specifically, each of the aforesaid commercially available agents was subjected to the method described below to prepare comparative test samples. A proper amount of a respective commercially available agent was dissolved in phosphate-buffered saline (PBS) to prepare a stock solution with a concentration of 5 mg/mL, followed by using a membrane filter with a pore size of 0.22 μm to conduct vacuum filtration and sterilization. The resulting stock solution was diluted with a respective complete medium shown in Table 3 below to form comparative test samples with different concentrations. To be specific, the comparative test samples prepared from the respective commercially available agent have the concentrations shown in Table 2 below. The thus obtained comparative test samples to be used for treating a respective cancer/tumor cell line shown in Table 3 were prepared using the same complete medium as that for the respective cancer/tumor cell line. […] The cultivation of each cancer/tumor cell line is described as follows. […] Afterwards, a cell suspension having a cell density of 1.0×10^4 cells/mL was prepared. […] As experimental groups, the tumor/cancer cells of each cell line were treated with the test tea samples prepared from one or more of the tea products and the comparative test samples prepared from one or more of the commercially available agents as obtained in section B of this example (for more detailed information about the tea product(s) and the commercially available product (s) used to treat each cell line, please see Table 4 below). To be specific, 6 to 10 test tea samples prepared from the same tea product and having different concentrations, as well as 6 to 10 comparative test samples prepared from the same commercially available agent and having different concentrations, were utilized to treat the tumor/cancer cells of each cell line. For each experimental group, 6 repetitions of tumor/cancer treatment were performed. For the control group, 100 μL of PBS was added to a well containing the medium and the cancer/tumor cells of the respective cell line. For the blank group, 100 μL of PBS was added to a well containing a complete medium the same as that used for cultivation of the cancer/tumor cells of the respective cell line. After the treatment described above, cultivation was conducted in an incubator (37° C., 100% relative humidity, 5% CO2) for 48 hours. Subsequently, the liquid containing the medium and the sample in the well was removed, and a respective complete medium (shown in Table 3 above) containing 10% CCK-8 (Cell Counting Kit-8)(Dojindo Molecular Technologies, Inc., Cat. No. CK04-13) was added. Cultivation was performed in an incubator (37° C.) for 2 to 4 hours, followed by gently shaking.

Compound: O=c1[nH]cc(F)c(=O)[nH]1 [5-fluorouracil]
- inhibition at 0.078125 µg/mL ([1]; 0.078125 μg/mL, read-out: Percent growth inhibition): 10.9%
- inhibition at 0.15625 µg/mL ([1]; 0.15625 μg/mL, read-out: Percent growth inhibition): 24.5%
- inhibition at 0.3125 µg/mL ([1]; 0.3125 μg/mL, read-out: Percent growth inhibition): 37.5%
- inhibition at 0.625 µg/mL ([1]; 0.625 μg/mL, read-out: Percent growth inhibition): 63.7%
- inhibition at 1.25 µg/mL ([1]; 1.25 μg/mL, read-out: Percent growth inhibition): 83.3%
- inhibition at 2.5 µg/mL ([1]; 2.5 μg/mL, read-out: Percent growth inhibition): 86%
- inhibition at 5 µg/mL ([1]; 5 μg/mL, read-out: Percent growth inhibition): 89.1%
- IC50 ([1]; Table 5 concentration series): 0.457 mg/L (≈ 3.52 µM)

Compound: O=C(O[C@@H]1Cc2c(O)cc(O)cc2O[C@@H]1c1cc(O)c(O)c(O)c1)c1cc(O)c(O)c(O)c1 [EGCG monomer, epigallocatechin gallate]
- Percent growth inhibition ([2]; 2.5 μg/mL): 6.51%
- Percent growth inhibition ([2]; 5 μg/mL): 2.62%
- Percent growth inhibition ([2]; 10 μg/mL): −2.75%
- Percent growth inhibition ([2]; 20 μg/mL): −6.45%
- Percent growth inhibition ([2]; 40 μg/mL): −20.61%
- Percent growth inhibition ([2]; 80 μg/mL): 57.40%
- Percent growth inhibition ([2]; 160 μg/mL): 96.45%
- Percent growth inhibition ([2]; 320 μg/mL): 97.46%
- Percent growth inhibition ([2]; 640 μg/mL): 97.03%
- IC50 ([2]; BT-474): IC50 (μg/mL) = 74.75
